# Laboratory results: US6818407B2, “Anti-endotoxic antimicrobial cationic peptides and methods of use therfor” (priority 1998, dated 2004)
# Key:
# [1] = system: mutant (Nal B, H744) of P. aeruginosa; experiment: microbe, parasite or virus in culture; format: cell-based; details: for (B) MIC of Cipro when combined with peptide: ciprofloxacin with peptide at concentration (A); for (B) MIC of Cipro when combined with peptide / FIC index / (A) Peptide doses together with Cipro: Nal B, H744; for FIC index: peptide + ciprofloxacin; for MIC A MIC of Peptides: peptide alone, P. aeruginosa mutant Nal B, H744 (Table 5); for (A) Peptide doses together with Cipro: peptide concentration in combination with ciprofloxacin
# Procedure, shortened: (§1)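 Checkerboard titration in Mueller Hinton broth, peptide against carbenicillin or ciprofloxacin, inoculum 10 μl of 10^−4 dilution of overnight culture, 18-24 h at 37 °C. Combination MIC is the lowest concentration reducing growth >50%. FIC index = A/MIC A + B/MIC B, with ≤~0.5 synergy, 1.0 additivity, >1.0 antagonism.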
# [2] = system: β-lactamase derepressed mutant (H547) of P. aeruginosa; experiment: microbe, parasite or virus in culture; format: cell-based; details: P. aeruginosa H547; for (B) MIC of Carb when combined with peptide: Carbenicillin with peptide at concentration (A); for MIC A MIC of Peptides: peptide alone; for (A) Peptide doses together with Carb: peptide concentration in combination with Carbenicillin
# Procedure, shortened: as §1
# [3] = system: Pseudomonas aeruginosa strain M2; experiment: Protection of neutropenic CD-1 mice challenged with Pseudomonas aeruginosa; format: in vivo; parameters: Survival post bacterial challenge, surviving mice: reference not given here; details: for Survival (%) post bacterial challenge: PBS 8
# Procedure, shortened: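 Neutropenia induced by three i.p. cyclophosphamide doses ([…], alternate days); mice then infected i.p. with 200-300 organisms/mouse. Peptides (200 µg/mouse = 8 mg/kg) in buffered citrate given i.p. at 30 min (single) or 30 min and 16 hrs (double) post-challenge; PBS control; mean of 2 experiments.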
# P. aeruginosa = experiment: MIC, broth microdilution assay in polypropylene microtiter trays; format: cell-based; details: average of three separate experiments
# Procedure, shortened: (§2)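 Each peptide's inhibitory endpoint is based on optical density: absence of any OD change for the chosen duration defines the minimal inhibitory concentration.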
# S. aureus = experiment: as above; format: cell-based; details: average of three separate experiments
# Procedure, shortened: as §2
# E. coli [4] = experiment: as above; format: cell-based; details: average of three separate experiments
# Procedure, shortened: as §2
# S. aureus K147 = experiment: as above; format: cell-based; details: average of three separate experiments
# Procedure, shortened: as §2
# Salmonella typhi = experiment: Synergy study (checkerboard titration) with hen white lysozyme; format: cell-based; details: for Lowest [CP] showing synergy: cationic peptide concentration, combined with lysozyme; for Lowest [Lyso] showing synergy: lysozyme concentration, combined with the peptide
# P. aeruginosa (H103) = experiment: as above; format: cell-based; details: for Lowest [CP] showing synergy: cationic peptide concentration, combined with lysozyme; for Lowest [Lyso] showing synergy: lysozyme concentration, combined with the peptide
# E. coli [5] = experiment: as above; format: cell-based; details: for Lowest [CP] showing synergy: cationic peptide concentration, combined with lysozyme; for Lowest [Lyso] showing synergy: lysozyme concentration, combined with the peptide
# [6] = double dose (200 μg per mouse i.p. at 30 min and 16 hrs), 16 hr
# [7] = single dose (200 μg per mouse i.p. at 30 min), 16 hr
smiles,measurement,setting,value
CC[C@H](C)[C@H](NC(=O)CNC(=O)[C@@H](NC(=O)[C@H](CCCCN)NC(=O)[C@H](CCCCN)NC(=O)[C@H](Cc1ccccc1)NC(=O)[C@H](CC(C)C)NC(=O)[C@H](CCCCN)NC(=O)[C@H](Cc1c[nH]c2ccccc12)NC(=O)[C@H](CC(C)C)NC(=O)[C@@H](N)CCCCN)[C@@H](C)CC)C(=O)NCC(=O)N[C@@H](C)C(=O)N[C@H](C(=O)N[C@@H](CC(C)C)C(=O)N[C@@H](CCCCN)C(=O)N[C@H](C(=O)N[C@@H](CC(C)C)C(=O)N[C@@H](CCCCN)C(=O)N[C@H](C(=O)N[C@@H](CC(C)C)C(=O)N[C@H](C(=O)N[C@H](C(=O)NCC(=O)N[C@@H](CC(C)C)C(=O)N1CCC[C@H]1C(=O)N[C@@H](C)C(=O)N[C@@H](CC(C)C)C(=O)N[C@@H](CCCCN)C(=O)N[C@@H](CC(C)C)C(=O)N[C@H](C(=O)N[C@@H](CC(C)C)C(=O)N[C@@H](CCCCN)C(=O)O)[C@@H](C)O)[C@@H](C)O)[C@@H](C)O)C(C)C)C(C)C)C(C)C [CM7],(B) MIC of Cipro when combined with peptide,[1],.125 µg/mL
same,FIC index,[1],.63
same,MIC A MIC of Peptides,[1],16 µg/mL
same,(A) Peptide doses together with Cipro,[1],2 µg/mL
same,(B) MIC of Carb when combined with peptide,[2],64 µg/mL
same,MIC A MIC of Peptides,[2],32 µg/mL
same,(A) Peptide doses together with Carb,[2],2 µg/mL
same,"Survival post bacterial challenge, surviving mice",[3]; [6],12
same,"Survival post bacterial challenge, surviving mice","[3]; double dose, 24 hr",12
same,"Survival post bacterial challenge, surviving mice","[3]; double dose, 41 hr",8
same,"Survival post bacterial challenge, surviving mice","[3]; double dose, 48 hr",6
same,"Survival post bacterial challenge, surviving mice","[3]; double dose, 64 hr",5
same,Survival (%) post bacterial challenge,"[3]; double dose, 64 hr",41%
same,"Survival post bacterial challenge, surviving mice","[3]; double dose, 72 hr",5
same,Survival (%) post bacterial challenge,"[3]; double dose, 72 hr",41%
same,"Survival post bacterial challenge, surviving mice","[3]; double dose, 96 hr",5
same,Survival (%) post bacterial challenge,"[3]; double dose, 96 hr",41%
same,"Survival post bacterial challenge, surviving mice",[3]; [7],15
same,"Survival post bacterial challenge, surviving mice","[3]; single dose, 24 hr",15
same,"Survival post bacterial challenge, surviving mice","[3]; single dose, 41 hr",13
same,"Survival post bacterial challenge, surviving mice","[3]; single dose, 48 hr",13
same,"Survival post bacterial challenge, surviving mice","[3]; single dose, 64 hr",12
same,Survival (%) post bacterial challenge,"[3]; single dose, 64 hr",80%
same,"Survival post bacterial challenge, surviving mice","[3]; single dose, 72 hr",11
same,Survival (%) post bacterial challenge,"[3]; single dose, 72 hr",73%
same,"Survival post bacterial challenge, surviving mice","[3]; single dose, 96 hr",11
same,Survival (%) post bacterial challenge,"[3]; single dose, 96 hr",73%
same,MIC P. aeruginosa,P. aeruginosa,8 µg/mL
same,MIC S. aureus,S. aureus,8 µg/mL
same,MIC E. coli,E. coli [4],2 µg/mL
same,MIC S. aureus K147,S. aureus K147,4 to 8 µg/mL
same,FIC for combination of cationic peptide and lysozyme,Salmonella typhi,0.52
same,Lowest [CP] showing synergy,Salmonella typhi,2.61 µg/mL
same,Lowest [Lyso] showing synergy,Salmonella typhi,15.6 µg/mL
same,FIC for combination of cationic peptide and lysozyme,P. aeruginosa (H103),0.75
same,Lowest [CP] showing synergy,P. aeruginosa (H103),2.6 µg/mL
same,Lowest [Lyso] showing synergy,P. aeruginosa (H103),250 µg/mL
same,FIC for combination of cationic peptide and lysozyme,E. coli [5],0.31
same,Lowest [CP] showing synergy,E. coli [5],0.65 µg/mL
same,Lowest [Lyso] showing synergy,E. coli [5],7.8 µg/mL
CC[C@H](C)[C@H](NC(=O)CNC(=O)[C@@H](NC(=O)[C@H](CCCCN)NC(=O)[C@H](CCCCN)NC(=O)[C@@H](NC(=O)[C@H](Cc1ccccc1)NC(=O)[C@H](CCCCN)NC(=O)[C@H](CCCCN)NC(=O)[C@H](Cc1c[nH]c2ccccc12)NC(=O)[C@@H](N)CCCCN)[C@@H](C)CC)[C@@H](C)CC)C(=O)NCC(=O)N[C@@H](C)C(=O)N[C@H](C(=O)N[C@@H](CC(C)C)C(=O)N[C@@H](CCCCN)C(=O)N[C@H](C(=O)N[C@@H](CC(C)C)C(=O)N[C@H](C(=O)N[C@H](C(=O)NCC(=O)N[C@@H](CC(C)C)C(=O)N1CCC[C@H]1C(=O)N[C@@H](C)C(=O)N[C@@H](CC(C)C)C(=O)N[C@@H](CCCCN)C(=O)N[C@@H](CC(C)C)C(=O)N[C@H](C(=O)N[C@@H](CCCCN)C(=O)N[C@@H](CCCCN)C(=O)O)[C@@H](C)O)[C@@H](C)O)[C@@H](C)O)C(C)C)C(C)C [CPα2],(B) MIC of Cipro when combined with peptide,[1],.125 µg/mL
same,FIC index,[1],.75
same,MIC A MIC of Peptides,[1],2 µg/mL
same,(A) Peptide doses together with Cipro,[1],1 µg/mL
same,(B) MIC of Carb when combined with peptide,[2],32 µg/mL
same,FIC index,"[2]; peptide + Carbenicillin, about 0.5 or less synergy, 1.0 additivity, >1.0 antagonism",1.0
same,MIC A MIC of Peptides,[2],2 µg/mL
same,(A) Peptide doses together with Carb,[2],1 µg/mL
same,"Survival post bacterial challenge, surviving mice",[3]; [6],13
same,"Survival post bacterial challenge, surviving mice","[3]; double dose, 24 hr",13
same,"Survival post bacterial challenge, surviving mice","[3]; double dose, 41 hr",12
same,"Survival post bacterial challenge, surviving mice","[3]; double dose, 48 hr",9
same,"Survival post bacterial challenge, surviving mice","[3]; double dose, 64 hr",6
same,Survival (%) post bacterial challenge,"[3]; double dose, 64 hr",46%
same,"Survival post bacterial challenge, surviving mice","[3]; double dose, 72 hr",6
same,Survival (%) post bacterial challenge,"[3]; double dose, 72 hr",46%
same,"Survival post bacterial challenge, surviving mice","[3]; double dose, 96 hr",5
same,Survival (%) post bacterial challenge,"[3]; double dose, 96 hr",38%
same,"Survival post bacterial challenge, surviving mice",[3]; [7],15
same,"Survival post bacterial challenge, surviving mice","[3]; single dose, 24 hr",15
same,"Survival post bacterial challenge, surviving mice","[3]; single dose, 41 hr",13
same,"Survival post bacterial challenge, surviving mice","[3]; single dose, 48 hr",13
same,"Survival post bacterial challenge, surviving mice","[3]; single dose, 64 hr",13
same,Survival (%) post bacterial challenge,"[3]; single dose, 64 hr",86%
same,"Survival post bacterial challenge, surviving mice","[3]; single dose, 72 hr",12
same,Survival (%) post bacterial challenge,"[3]; single dose, 72 hr",80%
same,"Survival post bacterial challenge, surviving mice","[3]; single dose, 96 hr",12
same,Survival (%) post bacterial challenge,"[3]; single dose, 96 hr",80%
same,MIC P. aeruginosa,P. aeruginosa,6 µg/mL
same,MIC S. aureus,S. aureus,16 µg/mL
same,MIC E. coli,E. coli [4],2 µg/mL
same,MIC S. aureus K147,S. aureus K147,16 µg/mL
same,FIC for combination of cationic peptide and lysozyme,Salmonella typhi,0.63
same,Lowest [CP] showing synergy,Salmonella typhi,2.61 µg/mL
same,Lowest [Lyso] showing synergy,Salmonella typhi,125 µg/mL
same,FIC for combination of cationic peptide and lysozyme,P. aeruginosa (H103),0.56
same,Lowest [CP] showing synergy,P. aeruginosa (H103),10.4 µg/mL
same,Lowest [Lyso] showing synergy,P. aeruginosa (H103),62.5 µg/mL
same,FIC for combination of cationic peptide and lysozyme,E. coli [5],0.31
same,Lowest [CP] showing synergy,E. coli [5],0.65 µg/mL
same,Lowest [Lyso] showing synergy,E. coli [5],7.8 µg/mL
